Experimental findings from ChEMBL document CHEMBL4011659, “Combining Elements from Two Antagonists of Formyl Peptide Receptor 2 Generates More Potent Peptidomimetic Antagonists” (J Med Chem, 2017) are described below.

Molecules are shown by their SMILES. Calls of active or inactive are those of the source. The calls are words filed in the database; no cut-off is given here.

By IC50 is commonly meant the concentration that gives 50% inhibition.

Assay [1] deals with Neutrophil. Nature of the assay: Inhibition of PMA-induced superoxide production in human peripheral blood polymorphonuclear neutrophils at 500 nM preincubated for 5 mins followed PMA stimulation by isoluminol/HRP-based chemiluminescence assay. The class given is functional, cell-based.
Assay [2] deals with T1, N-formyl peptide receptor 2 (Homo sapiens, UniProt P25090).
T1 sequence (P25090 whole entry): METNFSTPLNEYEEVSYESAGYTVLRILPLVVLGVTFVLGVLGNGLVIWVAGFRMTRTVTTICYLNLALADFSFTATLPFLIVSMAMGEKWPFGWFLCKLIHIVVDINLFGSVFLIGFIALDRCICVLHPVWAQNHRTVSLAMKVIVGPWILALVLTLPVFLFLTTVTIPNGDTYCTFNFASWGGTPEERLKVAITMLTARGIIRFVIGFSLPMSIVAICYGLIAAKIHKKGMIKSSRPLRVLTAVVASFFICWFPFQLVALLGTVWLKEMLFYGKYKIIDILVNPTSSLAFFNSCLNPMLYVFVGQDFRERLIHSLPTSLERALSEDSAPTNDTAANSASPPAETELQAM
Nature of the assay: (§1) Antagonist activity at FPR2 in human peripheral blood polymorphonuclear neutrophils assessed as inhibition of WKYMVM-peptide induced ROS production preincubated for 5 mins followed WKYMVM-peptide stimulation by isoluminol/HRP-based chemiluminescence assay.

Assay [3] addresses T2, fMet-Leu-Phe receptor (Homo sapiens) (UniProt P21462).
T2 sequence (whole entry): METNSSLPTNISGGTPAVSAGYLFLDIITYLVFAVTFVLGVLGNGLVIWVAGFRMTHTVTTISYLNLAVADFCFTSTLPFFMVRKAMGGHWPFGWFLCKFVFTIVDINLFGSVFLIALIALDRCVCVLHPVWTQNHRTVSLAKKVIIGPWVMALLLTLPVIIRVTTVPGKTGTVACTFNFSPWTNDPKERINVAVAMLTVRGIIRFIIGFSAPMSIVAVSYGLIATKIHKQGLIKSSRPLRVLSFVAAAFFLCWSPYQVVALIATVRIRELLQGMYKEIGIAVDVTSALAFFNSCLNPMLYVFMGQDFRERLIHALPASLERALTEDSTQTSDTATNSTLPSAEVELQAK
Nature of the assay: Antagonist activity at FPR1 in human peripheral blood polymorphonuclear neutrophils assessed as inhibition of fMLF-induced ROS production at >= 500 nM preincubated for 5 mins followed fMLF stimulation by isoluminol/HRP-based chemiluminescence assay.

The target in assay [4] is T1, N-formyl peptide receptor 2. In words: Antagonist activity at FPR2 in human peripheral blood polymorphonuclear neutrophils assessed as inhibition of WKYMVM-peptide induced ROS production preincubated for 5 mins followed WKYMVM-peptide stimulation measured up to 20 mins by isoluminol-based chemiluminescence assay.
Assay [5] concerns the target T2, fMet-Leu-Phe receptor (Homo sapiens). In words: Antagonist activity at FPR1 in human peripheral blood polymorphonuclear neutrophils assessed as inhibition of fMLF-induced ROS production at <500 nM preincubated for 5 mins followed fMLF stimulation by isoluminol/HRP-based chemiluminescence assay.
In assay [6] the target is T3, N-formyl peptide receptor 2 (Homo sapiens) (UniProt P25090).
T3 sequence (whole entry): T1 sequence (P25090 whole entry)
Described as §1.

Assay [7] concerns the target T3, N-formyl peptide receptor 2 (Homo sapiens). The settings on record: 100 nM.
Description: Antagonist activity at FPR2 in human peripheral blood polymorphonuclear neutrophils assessed as inhibition of WKYMVM-induced ROS production at 100 nM preincubated for 5 mins followed Lau-Aoc-(Lys-betaNphe)6-NH2 stimulation by isoluminol/HRP-based chemiluminescence assay
The target is the same in assay [8]. The settings on record: 100 nM. The source holds these as a separate data set.
Description: Displacement of Cy5-WKYMVM from FPR2 in human peripheral blood polymorphonuclear neutrophils at 100 nM preincubated for 10 mins followed by Cy5-WKYMVM addition measured after 60 mins by fluorescence based assay
Assay [9] has the same target. The settings on record: 100 nM. This is another data set of the same source.
Description: Antagonist activity at FPR2 in human peripheral blood polymorphonuclear neutrophils assessed as inhibition of F2Pal10-induced ROS production at 100 nM preincubated for 5 mins followed F2Pal10 stimulation by isoluminol/HRP-based chemiluminescence assay
The target in assay [10] is T2, fMet-Leu-Phe receptor (Homo sapiens). In words: Antagonist activity at FPR1 in human peripheral blood polymorphonuclear neutrophils assessed as inhibition of N-(4-chlorophenyl)-N'-(5-isopropyl-1-methyl-3-oxo-2-phenyl-2,3-dihydro-1H-pyrazol-4-yl)urea-induced ROS production at 500 nM preincubated for 5 mins followed N-(4-chlorophenyl)-N'-(5-isopropyl-1-methyl-3-oxo-2-phenyl-2,3-dihydro-1H-pyrazol-4-yl)urea stimulation by isoluminol/HRP-based chemiluminescence assay.

Assay [11] shares this target. In words: Antagonist activity at FPR1 in human peripheral blood polymorphonuclear neutrophils assessed as inhibition of fMLF-induced ROS production at 500 nM preincubated for 5 mins followed fMIFL stimulation by isoluminol/HRP-based chemiluminescence assay.
Assay [12] has the same target. Nature of the assay: Antagonist activity at FPR1 in human peripheral blood polymorphonuclear neutrophils assessed as inhibition of fMIFL-induced ROS production at 500 nM preincubated for 5 mins followed fMIFL stimulation by isoluminol/HRP-based chemiluminescence assay.
For assay [13], the target named is T3, N-formyl peptide receptor 2 (Homo sapiens). The settings on record: 100 nM. This is another data set of the same source.
Description: Antagonist activity at FPR2 in human peripheral blood polymorphonuclear neutrophils assessed as inhibition of PSMalpha2-peptide induced ROS production at 100 nM preincubated for 5 mins followed PSMalpha2-peptide stimulation by isoluminol/HRP-based chemiluminescence assay
The target is the same in assay [14]. The conditions noted are these: 100 nM. The source holds these as a separate data set.
Description: Antagonist activity at FPR2 in human peripheral blood polymorphonuclear neutrophils assessed as inhibition of Lau-Aoc-(Lys-betaNphe)6-NH2-induced ROS production at 100 nM preincubated for 5 mins followed Lau-Aoc-(Lys-betaNphe)6-NH2 stimulation by isoluminol/HRP-based chemiluminescence assay

Turning to `CCN(CC)c1ccc2c(-c3ccccc3C(=O)N[C@@H](CCCCN)C(=O)N(CCC(=O)N[C@@H](CCCCN)C(=O)N(CCC(=O)N[C@@H](CCCCN)C(=O)N(CCC(=O)N[C@@H](CCCCN)C(=O)N(CCC(=O)N[C@@H](CCCCN)C(=O)N(CCC(=O)N[C@@H](CCCCN)C(=O)N(CCC(N)=O)Cc3ccc(C(F)(F)F)cc3)Cc3ccc(C(F)(F)F)cc3)Cc3ccc(C(F)(F)F)cc3)Cc3ccc(C(F)(F)F)cc3)Cc3ccc(C(F)(F)F)cc3)Cc3ccc(C(F)(F)F)cc3)c3ccc(=[N+](CC)CC)cc-3oc2c1`, the inhibition result in [1] and in [3] was “Active” each time. The IC50 in [2] turned out to be 94 nM.
For `CCN(CC)c1ccc2c(-c3ccccc3C(=O)N[C@@H](CCC(N)=O)C(=O)N[C@@H](CCCNC(=N)N)C(=O)N[C@@H](CC(C)C)C(=O)N[C@@H](Cc3ccccc3)C(=O)N[C@@H](CCC(N)=O)C(=O)NC(C(=O)N[C@@H](CCCCN)C(=O)NCC(=O)N[C@@H](CCCNC(=N)N)C(=O)N[C@@H](CCCNC(=N)N)C(=O)O)C(C)C)c3ccc(=[N+](CC)CC)cc-3oc2c1` (single isomer, unassigned), in [4], the IC50 came out at 60 nM. Also, the inhibition result in assay [5] is “inactive”.
Taken in the same sequence, the figures for `CCCCCCCCCCCCCCCC(=O)N[C@@H](CCCCN)C(=O)N(CCC(=O)N[C@@H](CCCCN)C(=O)N(CCC(=O)N[C@@H](CCCCN)C(=O)N(CCC(=O)N[C@@H](CCCCN)C(=O)N(CCC(=O)N[C@@H](CCCCN)C(=O)N(CCC(=O)N[C@@H](CCCCN)C(=O)N(CCC(N)=O)[C@@H](C)c1ccccc1)[C@@H](C)c1ccccc1)[C@@H](C)c1ccccc1)[C@@H](C)c1ccccc1)[C@@H](C)c1ccccc1)[C@@H](C)c1ccccc1` were 41 nM and “inactive”.
Regarding `CCN(CC)c1ccc2c(-c3ccccc3C(=O)N[C@@H](CCC(N)=O)C(=O)N[C@@H](CCCNC(=N)N)C(=O)N[C@@H](CC(C)C)C(=O)N[C@@H](Cc3ccccc3)C(=O)N[C@@H](CCC(N)=O)C(=O)N[C@@H](C(=O)N[C@@H](CCCCN)C(=O)NCC(=O)N[C@@H](CCCNC(=N)N)C(=O)N[C@@H](CCCNC(=N)N)C(N)=O)C(C)C)c3ccc(=[N+](CC)CC)cc-3oc2c1`, the inhibition result in assay [6] was “Active”.
For `CCN(CC)c1ccc2c(-c3ccccc3C(=O)N[C@@H](CCCCN)C(=O)N(CCC(=O)N[C@@H](CCCCN)C(=O)N(CCC(=O)N[C@@H](CCCCN)C(=O)N(CCC(=O)N[C@@H](CCCCN)C(=O)N(CCC(=O)N[C@@H](CCCCN)C(=O)N(CCC(=O)N[C@@H](CCCCN)C(=O)N(CCC(N)=O)Cc3ccccc3)Cc3ccccc3)Cc3ccccc3)Cc3ccccc3)Cc3ccccc3)Cc3ccccc3)c3ccc(=[N+](CC)CC)cc-3oc2c1`, the inhibition entry in assay [7], in assay [8], in assay [9], in [13] and in assay [14] was “Active” each time. For the same compound, in assay [2], the IC50 amounted to 15 nM. The inhibition result in [10], in assay [11], in assay [12] and in [5] was “inactive” throughout.
On to `CCN(CC)c1ccc2c(-c3ccccc3C(=O)N[C@@H](CCCCN)C(=O)N(CCC(=O)N[C@@H](CCCCN)C(=O)N(CCC(=O)N[C@@H](CCCCN)C(=O)N(CCC(=O)N[C@@H](CCCCN)C(=O)N(CCC(=O)N[C@@H](CCCCN)C(=O)N(CCC(=O)N[C@@H](CCCCN)C(=O)N(CCC(N)=O)Cc3ccc(F)cc3)Cc3ccc(F)cc3)Cc3ccc(F)cc3)Cc3ccc(F)cc3)Cc3ccc(F)cc3)Cc3ccc(F)cc3)c3ccc(=[N+](CC)CC)cc-3oc2c1`, for which the inhibition entry in [1] was “Active”. In assay [2], the IC50 worked out at 10 nM. Also, in [5], the inhibition entry is “inactive”.
